TGI data for 17 molecules are collected here from PubChem BioAssay (NCI).

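Compound exposure: 48 hours, 5 concentrations, 96-well plates. TGI: concentration producing complete growth inhibition.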 Bounds are passed on as bounds.

Common to all, as to assay: NCI-60 cell line screen, 48 h
Assay [1] relates to UO-31 renal.
Assay [2] has as its system SF-268 CNS.
The test system of assay [3] is NCI-H460 lung.
The test system of assay [4] is HOP-92 NSCLC.
The subject of assay [5] is SNB-75 CNS.
Assay [6] concerns RXF 393 renal.
In assay [7] the test system is 786-0 renal.
The test system of assay [8] is HL-60(TB) leukemia.
Assay [9] deals with PC-3 prostate.
The subject of assay [10] is NCI/ADR-RES ovarian.

For `Cc1cc2c(C)n(Cc3ccc(Cl)cc3Cl)nc2c(C(=O)O)c1C`, the TGI in assay [1], in assay [2], in [3], in assay [4], in [5] and in assay [6] was greater than 100 µM throughout. Further, the TGI in [7] and in [8] was greater than 100 µM throughout.
For the molecule `CC12Oc3ccc4ccccc4c3CC1Cc1c(ccc3ccccc13)O2` (stereo not given), the TGI in assay [1] was greater than 100 µM; in [2], greater than 100 µM; in [3], greater than 100 µM; in assay [4] it was 11 µM; in assay [5], 41.3 µM; in [6], 59.8 µM. In addition, the TGI in [7] and in assay [8] was greater than 100 µM in each case.
As for `CCOC(=O)C1=C(Nc2ccc(Cl)c(Cl)c2)OC/C1=N\NS(=O)(=O)c1ccc(C)cc1`, the TGI in assay [1] was 85.6 µM; in [2], greater than 100 µM; in assay [3], greater than 100 µM; in [5], greater than 100 µM; in assay [6] it was greater than 100 µM; in [7], greater than 100 µM. The TGI in assay [8] is greater than 100 µM.
As for `O=C(CC1C(=O)Nc2ccccc2S1=O)Nc1ccc(Cl)cc1` (stereo not given), the TGI in assay [1] is greater than 100 µM; in [2] it was greater than 100 µM; in assay [3], greater than 100 µM; in assay [4] it was 83.4 µM; in assay [5], greater than 100 µM; in assay [7], greater than 100 µM. This molecule came in with a TGI in [8] greater than 100 µM.
Turning to `COC(=O)C1=C(c2ccc3c(c2)OCO3)OC(c2cc(OC)c(OC)c(OC)c2)C1` (stereo not given), the TGI in assay [1], in assay [2], in assay [3], in assay [4], in assay [5] and in assay [7] was greater than 100 µM each time.
As to `CC1=CC(=O)N(c2c(C)cccc2Cl)C(C)N1` (stereo not given), the TGI in assay [1], in assay [2], in [3], in assay [4], in [5] and in assay [6] was greater than 100 µM in each case. Besides, the TGI in assay [7] and in assay [8] was greater than 100 µM in each case.
Turning to `CN(C)C(=S)/N=c1\ss/c(=N\S(=O)(=O)c2ccccc2)n1N(C)C`, the TGI in assay [1] was greater than 100 µM; in assay [2], greater than 100 µM; in assay [3], greater than 100 µM; in [5], greater than 100 µM; in [6], 85 µM; in assay [7], greater than 100 µM. In assay [8], this molecule returned a TGI greater than 100 µM.
`COC1=C2CC(C)CC(OC)C(O)C(C)/C=C(\C)C(OC(N)=O)C(OC)/C=C\C=C(/C)C(=O)NC(=C(/C=N/N3CCCCC3)C1=O)C2=O` (stereo not given): the TGI is 23.4 µM in assay [1]; 25.1 µM in assay [2]; 57.1 µM in assay [3]; 35.4 µM in assay [4]; 41 µM in assay [5]; 14.3 µM in assay [6]. For the same molecule, the TGI in assay [9] is greater than 100 µM; in assay [7], 22.8 µM; in [8], 4.32 µM.
Regarding `O=S(=O)(C/C(=N\O)c1ccccc1)c1ccccc1`, the TGI in assay [1], in assay [2], in assay [3], in [4], in [5] and in assay [6] was greater than 100 µM throughout. Further, the TGI in assay [7] and in assay [8] was greater than 100 µM throughout.
Turning to `COc1ccc2nc(NC(=O)C(=O)C(C#N)c3ccc(Cl)c(Cl)c3)sc2c1` (stereo not given), the TGI in assay [1], in assay [2], in [3], in [4], in [5] and in [6] was greater than 100 µM each time. Further, the TGI in [7] and in assay [8] was greater than 100 µM throughout.
As for `O=C(O)CCSC(=O)Nc1ccc(N=Nc2ccccc2)cc1`, the TGI in assay [1], in assay [2], in assay [3], in assay [4], in [5] and in [6] was greater than 100 µM each time. In addition, the TGI in [7] and in assay [8] was greater than 100 µM in each case.
For `O=C(O)/C=C/C(=O)N1C/C(=C\c2ccccc2)C(=O)/C(=C/c2ccccc2)C1`, the TGI in [1] amounted to 24.9 µM; in assay [2], 16.8 µM; in assay [3], 30.8 µM; in [4], 37.9 µM; in [5] it was 20.6 µM; in assay [6], 17.5 µM. For the same molecule, the TGI stood at 10.6 µM in [7], 26.6 µM in [8] and 61.7 µM in assay [10].
Turning to `Nn1c(N=Nc2c(O)[nH]c3c(Cl)cc(Cl)cc23)n[nH]c1=S`, the TGI in assay [1], in assay [2], in assay [3], in assay [4], in [6] and in assay [7] was greater than 100 µM throughout. Also, the TGI in [8] was greater than 100 µM.
Consider `O=C(NS(=O)(=O)c1ccccc1)C(Cc1ccccc1)C(Cc1ccccc1)C(=O)NS(=O)(=O)c1ccccc1` (stereo not given), for which the TGI in assay [1], in assay [2], in [3], in [4], in assay [5] and in [6] was greater than 100 µM throughout. For the same molecule, the TGI in assay [7] and in assay [8] was greater than 100 µM each time.
On to `CN1CC(=O)N(C)c2nc[nH]c2C1=O`, for which the TGI in assay [1], in assay [2], in [3], in [5], in assay [6] and in assay [7] was greater than 100 µM each time. For the same molecule, the TGI in assay [8] was greater than 100 µM.
`Cc1ncc([N+](=O)[O-])n1CCNC(=O)Cn1c([N+](=O)[O-])cnc1C`: the TGI in assay [1], in assay [2], in assay [3], in assay [5], in assay [9] and in assay [7] was greater than 100 µM each time. Also, the TGI in assay [8] and in assay [10] was greater than 100 µM each time.
In the case of `Cc1cccc(C(C)(C)C)c1NC(=O)CC1Sc2ccccc2NC1=O` (stereo not given), the TGI was greater than 100 µM in assay [1]; greater than 100 µM in assay [2]; greater than 100 µM in assay [3]; 80 µM in [4]; greater than 100 µM in [5]; greater than 100 µM in [7]. Also, the TGI in assay [8] was determined as 89.9 µM.
